The text below walks through data of patent US4341895A (priority 1981, dated 1982).

For data set [1] the following is noted: in vivo; cited from earlier work.
Data set [2] has as its system ACh. The data set is described as follows: ACh (acetylcholine) analgesic test, procedure of Collier et al. In kind it is in vivo. As to conditions: sc; mouse, as free base; range in parentheses; tested as p-toluenesulfonate salt. The source says: (§1) The compounds of formula I and their acid-addition salts are useful as analgesic agents, as determined by standard tests performed on the compounds of formula I where R is ethoxycarbonyl and propionyl in the form of their p-toluenesulfonate salts.
(§2) ^a All activities are expressed in mg/kg s.c., free base.
^e Procedure (in mouse) of H.O.J. Collier, L. C. Dineen, C. A. Johnso
and C. Schneider, Br. J. Pharmacol. Chemother. 32, 295 (1968).

Data set [3] concerns phenazocine. The data set is described as follows: Antagonist activity vs. phenazocine. Format: in vivo. The following applies: rat, s.c., as free base; doses in parentheses; tested as p-toluenesulfonate salt.
Data set [4] can be described thus: Straub Tail observation. Format: in vivo. As to conditions: mouse, s.c.; for locomotor activity (footnote i to Straub Tail): at 75 mg/kg (R = C2 H5 COO) or 30 & 60 mg/kg (R = C2 H5 CO).
Text: as §1, §2

Data set [5] can be described thus: Tail Flick (analgesic agonist activity). In kind it is in vivo. The following applies: sc; rat, as free base; tested as p-toluenesulfonate salt.
In data set [6] the test system is Bradykinin. The data set is described as follows: Bradykinin analgesic test. Format: in vivo. As to conditions: rat.
Text: as §1, §2
^f G. Deffenu, L. Pegrassi and B. Lumachi, J. Pharm. Pharmacol. 18,
135 (1966); B. A. Berkowitz and E. L. Way, J. Pharmacol. Exp. Ther. 177,

For `CN1[C@@H]2CC[C@H]1CC(C(=O)O)(c1ccccc1)C2` (stereo partly shown) [3-phenyl-3-carboxytropane], the analgesic activity entry in data set [1] is “reported to have analgesic activity”.

On to `CCOC(=O)N1[C@@H]2CC[C@H]1[C@H](O)[C@@H](NCc1ccccc1)C2` (relative stereo) [I (R = C2 H5 COO), Ethyl 3α-benzylamino-2β-hydroxy-1αH,5αH-nortropane-8-carboxylate], for which the ED50 (commonly the dose at which the effect has come halfway, by size or by number of responders) in data set [2] was 6.9 mg/kg; in data set [5] it was 56 ± 4 mg/kg; in data set [6] (sc, as free base, range in parentheses, tested as p-toluenesulfonate salt), 21 mg/kg. Further, in data set [3], the “Antagonist activity vs. phenazocine” value was “inactive (10 & 80)”. Also, the “Straub Tail (dose)” value in data set [4] (as free base, tested as p-toluenesulfonate salt) came out at 75 mg/kg. Further, in data set [4], the “locomotor activity (footnote i to Straub Tail)” value is given as “Increased locomotor activity”. The “depression (footnote h to Bradykinin ED50)” value in data set [6] (10 mg/kg s.c.) is on record as “Mild depression”; in data set [6] (20 and 30 mg/kg s.c.), “depression”.

On to `CCC(=O)N1[C@@H]2CC[C@H]1[C@H](O)[C@@H](NCc1ccccc1)C2` (relative stereo) [I (R = C2 H5 CO), 3α-Benzylamino-8-propionyl-1αH,5αH-nortropan-2β-ol], for which the ED50 worked out at 16 mg/kg in data set [2] and 44 ± 3.5 mg/kg in data set [5]. Further, the “Antagonist activity vs. phenazocine” value in data set [3] was “inactive (10)”. Besides, the “locomotor activity (footnote i to Straub Tail)” value in data set [4] was “Increased locomotor activity”.
